From ChEMBL document CHEMBL3044926, “Controlling powdery mildew on cucurbit rootstock seedlings in the greenhouse with fungicides and biofungicides” (Crop Prot, 2012) come the findings set out here.

In series [1] the test system is Lagenaria siceraria. Kind of series: Phytotoxicity against Lagenaria siceraria 'Emphasis' rootstock seedlings. The series is classed as organism-based. The note with it: in vivo.
The test system of series [2] is Cucurbita maxima x Cucurbita moschata. The series can be described thus: Phytotoxicity against inter-specific squash hybrid Cucurbita moschata x Cucurbita maxima (Strong tosa) rootstock seedlings. It counts as organism-based. The following applies: in vivo.
For series [3] the test system is unchanged. The series can be described thus: Phytotoxicity against inter-specific squash hybrid Cucurbita moschata x Cucurbita maxima (Strong tosa) rootstock seedlings assessed as stunting. The series is classed as organism-based. The following applies: in vivo.
Series [4] deals with Lagenaria siceraria. Kind of series: Phytotoxicity against Lagenaria siceraria 'Emphasis' rootstock seedlings assessed as stunting. The following applies: in vivo. It counts as organism-based.
Series [5] relates to Lagenaria siceraria. Kind of series: Phytotoxicity against Lagenaria siceraria 'Emphasis' rootstock seedlings assessed as stunted growth. The series is classed as organism-based. The note with it: in vivo.
In series [6] the test system is Cucurbita maxima x Cucurbita moschata. The series can be described thus: Phytotoxicity against inter-specific squash hybrid Cucurbita moschata x Cucurbita maxima (Strong tosa) rootstock seedlings assessed as stunted growth. The note with it: in vivo. It counts as organism-based.
The test system of series [7] is Podosphaera xanthii. Kind of series: Fungicidal activity against Podosphaera xanthii (powdery mildew) inoculated in Lagenaria siceraria Emphasis continuously after first drug application assessed as disease severity on lower surface areas of cotyledons at 40% in 0.37 ml/L applied thrice at 5-days intervals measured 5 days after third application under green house conditions (water Rvb = 13.9%). The series is classed as functional.

The test system of series [8] is Podosphaera xanthii. Kind of series: Fungicidal activity against Podosphaera xanthii (powdery mildew) inoculated in inter-specific squash hybrid Strong tosa (Cucurbita moschata x Cucurbita maxima) rootstock seedlings for 7 days prior to drug application assessed as disease severity at 40% in 0.37 ml/L applied once measured 7 days post-drug dose under greenhouse conditions (water Rvb = 17.5%). It counts as functional.

The subject of series [9] is Podosphaera xanthii. Kind of series: Fungicidal activity against Podosphaera xanthii (powdery mildew) inoculated in Lagenaria siceraria Emphasis continuously after first drug application assessed as disease severity on upper surface areas of cotyledons at 40% in 0.37 ml/L applied thrice at 5-days intervals measured 5 days after third application under green house conditions (water Rvb = 36.8%). The series is classed as functional.

Series [10] concerns Podosphaera xanthii. Kind of series: Fungicidal activity against Podosphaera xanthii (powdery mildew) inoculated in inter-specific squash hybrid Strong tosa (Cucurbita moschata x Cucurbita maxima) rootstock seedlings for 7 days prior to drug application assessed as incidence of disease symptoms on hypocotyls or upper or lower sides of cotyledons at 40% in 0.37 ml/L applied once measured 7 days post-drug dose under greenhouse …. It counts as functional.

Series [11] concerns Podosphaera xanthii. The series can be described thus: Fungicidal activity against Podosphaera xanthii (powdery mildew) inoculated in squash (Cucurbita pepo) rootstock seedlings continuously after first drug application assessed as disease severity at 40% in 0.37 ml/L applied thrice at 5-days intervals measured 5 days after third application under green house conditions (water Rvb = 3.9%). The series is classed as functional.

Series [12] relates to Podosphaera xanthii. The series can be described thus: Fungicidal activity against Podosphaera xanthii (powdery mildew) inoculated in squash (Cucurbita pepo) rootstock seedlings continuously after first drug application assessed as incidence of disease symptoms on hypocotyls or upper or lower sides of cotyledons at 40% in 0.37 ml/L applied thrice at 5-days intervals measured 5 days after third application under green house conditions (water Rvb = …. It counts as functional.

Series [13] deals with Podosphaera xanthii. Kind of series: Fungicidal activity against Podosphaera xanthii (powdery mildew) inoculated in inter-specific squash hybrid Strong tosa (Cucurbita moschata x Cucurbita maxima) rootstock seedlings for 7 days prior to drug application assessed as disease severity on upper surface areas of cotyledonsat 40% in 0.37 ml/L applied once measured 7 days post-drug dose under greenhouse conditions (water Rvb = 10.2%). It counts as functional.

Series [14] deals with Podosphaera xanthii. The series can be described thus: Fungicidal activity against Podosphaera xanthii (powdery mildew) inoculated in Lagenaria siceraria Emphasis continuously after first drug application assessed as disease severity at 40% in 0.37 ml/L applied thrice at 5-days intervals measured 5 days after third application under green house conditions (water Rvb = 53.5%). It counts as functional.

The test system of series [15] is Podosphaera xanthii. The series can be described thus: Fungicidal activity against Podosphaera xanthii (powdery mildew) inoculated in Lagenaria siceraria Emphasis continuously after first drug application assessed as incidence of disease symptoms on hypocotyls or upper or lower sides of cotyledons at 40% in 0.37 ml/L applied thrice at 5-days intervals measured 5 days after third application under green house conditions (water Rvb = 100%). It counts as functional.

The subject of series [16] is Podosphaera xanthii. The series can be described thus: Fungicidal activity against Podosphaera xanthii (powdery mildew) inoculated in inter-specific squash hybrid Strong tosa (Cucurbita moschata x Cucurbita maxima) rootstock seedlings for 7 days prior to drug application assessed as disease severity on lower surface areas of cotyledonsat 40% in 0.37 ml/L applied once measured 7 days post-drug dose under greenhouse conditions (water Rvb = 5.1%). The series is classed as functional.

Series [17] deals with Podosphaera xanthii. The series can be described thus: Fungicidal activity against Podosphaera xanthii (powdery mildew) inoculated in inter-specific squash hybrid Strong tosa (Cucurbita moschata x Cucurbita maxima) rootstock seedlings for 7 days prior to drug application assessed as disease severity at 46.1% in 1.50 g/L applied once measured 7 days post-drug dose under greenhouse conditions (water Rvb = 17.5%). It counts as functional, organism-based.

Series [18] concerns Podosphaera xanthii. Kind of series: Fungicidal activity against Podosphaera xanthii (powdery mildew) inoculated in squash (Cucurbita pepo) rootstock seedlings continuously after first drug application assessed as disease severity at 46.1% in 1.50 g/L applied thrice at 5-days intervals measured 5 days after third application under green house conditions (water Rvb = 3.9%). The series is classed as functional, organism-based.

Series [19] deals with Podosphaera xanthii. Kind of series: Fungicidal activity against Podosphaera xanthii (powdery mildew) inoculated in inter-specific squash hybrid Strong tosa (Cucurbita moschata x Cucurbita maxima) rootstock seedlings for 7 days prior to drug application assessed as incidence of disease symptoms on hypocotyls or upper or lower sides of …. The series is classed as functional, organism-based.

Series [20] deals with Podosphaera xanthii. The series can be described thus: Fungicidal activity against Podosphaera xanthii (powdery mildew) inoculated in squash (Cucurbita pepo) rootstock seedlings continuously after first drug application assessed as incidence of disease symptoms on hypocotyls or upper or lower sides of cotyledons at 46.1% in 1.50 g/L applied thrice at …. It counts as functional, organism-based.

Series [21] deals with Podosphaera xanthii. Kind of series: Fungicidal activity against Podosphaera xanthii (powdery mildew) inoculated in inter-specific squash hybrid Strong tosa (Cucurbita moschata x Cucurbita maxima) rootstock seedlings for 7 days prior to drug application assessed as disease severity on lower surface areas of cotyledonsat 46.1% in 1.50 g/L applied once measured 7 days post-drug dose under greenhouse conditions (water Rvb = 5.1%). It counts as functional, organism-based.

In series [22] the test system is Podosphaera xanthii. Kind of series: Fungicidal activity against Podosphaera xanthii (powdery mildew) inoculated in inter-specific squash hybrid Strong tosa (Cucurbita moschata x Cucurbita maxima) rootstock seedlings for 7 days prior to drug application assessed as disease severity on upper surface areas of cotyledonsat 46.1% in 1.50 g/L applied once measured 7 days post-drug dose under greenhouse conditions (water Rvb = 10.2%). It counts as functional, organism-based.

In the case of `OO` [HYDROGEN PEROXIDE], the Activity entry (with Lagenaria siceraria [1]; in series [2]; in [3]; in the series with Lagenaria siceraria [4]) was “Non-toxic” each time.

`CCCCC(C#N)(Cn1cncn1)c1ccc(Cl)cc1` (stereo not given) [MYCLOBUTANIL]: the “inhibition (INH)” value (in the series with Lagenaria siceraria [5]; in [6]) was 33% in each case. Besides, the Activity with Podosphaera xanthii [7] was found to be 0.9%; in the series with Podosphaera xanthii [8] it was 0.1%; in the series with Podosphaera xanthii [9], 3.1%; in the series on Podosphaera xanthii [10], 2.3%; with Podosphaera xanthii [11] it was 0%; in the series on Podosphaera xanthii [12], 0%. The Activity in the series with Podosphaera xanthii [13] came to 0.08%; in the series on Podosphaera xanthii [14], 4.1%; with Podosphaera xanthii [15], 65.1%; with Podosphaera xanthii [16], 0.02%.

For `O=C([O-])O.[K+]` [POTASSIUM BICARBONATE], the Activity result (in the series on Lagenaria siceraria [1]; in series [2]; in series [3]; in the series on Lagenaria siceraria [4]) was “Non-toxic” each time.

In the case of COPPER HYDROXIDE [listing 1 of 2 here], the Activity result (in the series on Lagenaria siceraria [1]; in [2]; in [3]; in the series on Lagenaria siceraria [4]) was “Non-toxic” in each case.

As to COPPER HYDROXIDE [listing 2 of 2 here], the Activity in the series with Podosphaera xanthii [17] worked out at 13.6%; in the series on Podosphaera xanthii [18], 0.21%; with Podosphaera xanthii [19] it was 97.7%; in the series on Podosphaera xanthii [20], 9.2%; in the series with Podosphaera xanthii [21], 4.3%; with Podosphaera xanthii [22], 8.2%.
